Assay results from publication PMC13198932, “Pyrazolone-based ERO1 inhibitors in ERO1-driven triple-negative breast cancer and SEPN1-related myopathy: Structure–activity relationship and therapeutic potential” (Pharmacological research, 2025).
“Also recorded” adds a separate entry of the source.

Experiments:
recombinant PDI = recombinant PDI (Homo sapiens, UniProt P07237); assay: PDI activity assay (insulin transhydrogenase / insulin turbidity assay); type: biochemical; settings: 25 μM, 15 min incubation
Chain of recombinant PDI (P07237 18-508, species assumed): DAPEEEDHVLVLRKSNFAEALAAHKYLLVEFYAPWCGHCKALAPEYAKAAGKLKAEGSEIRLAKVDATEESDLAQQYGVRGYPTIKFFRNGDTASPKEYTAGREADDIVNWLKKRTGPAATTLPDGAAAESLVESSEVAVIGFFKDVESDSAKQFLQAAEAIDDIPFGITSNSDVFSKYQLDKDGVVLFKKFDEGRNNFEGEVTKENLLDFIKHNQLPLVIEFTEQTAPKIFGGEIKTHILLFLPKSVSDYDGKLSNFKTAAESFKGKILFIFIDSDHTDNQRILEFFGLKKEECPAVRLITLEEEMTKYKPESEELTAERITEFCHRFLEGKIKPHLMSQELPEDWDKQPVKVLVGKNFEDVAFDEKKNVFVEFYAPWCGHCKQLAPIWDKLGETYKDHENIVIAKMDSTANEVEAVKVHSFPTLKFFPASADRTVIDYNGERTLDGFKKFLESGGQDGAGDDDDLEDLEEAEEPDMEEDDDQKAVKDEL
Procedure: PDI activity was assessed using an insulin transhydrogenase assay. Bovine insulin (1 mg/mL) in sodium phosphate buffer, pH 7.0, containing 2 mM EDTA, was incubated with 1.4 μM recombinant PDI in the presence of vehicle (1 % DMSO) or various concentrations of isoquercetin (30 or 60 μM), EN460, I2, I26, or I29 (1, 5, or 25 μM) for 15 min. The turbidimetric assay of insulin disulfide reduction by PDI was initiated by adding 1 mM dithiothreitol, and the reaction was monitored at 650 nm for 80 min. PDI activity is presented as a percentage of the vehicle control.

[1] = target: T1, ERO1 in MDA-MB-231 breast cancer cells (Homo sapiens, UniProt Q96HE7); assay: ERO1 redox state by non-reducing immunoblot in MDA-MB-231 cells; type: cell-based
T1 construct: Non-reducing Immunoblot of endogenous ERO1 in lysates of vehicle-treated MDAMB231; endogenous in cells; host or cells: MDA-MB-231
T1 sequence (Q96HE7 24-468): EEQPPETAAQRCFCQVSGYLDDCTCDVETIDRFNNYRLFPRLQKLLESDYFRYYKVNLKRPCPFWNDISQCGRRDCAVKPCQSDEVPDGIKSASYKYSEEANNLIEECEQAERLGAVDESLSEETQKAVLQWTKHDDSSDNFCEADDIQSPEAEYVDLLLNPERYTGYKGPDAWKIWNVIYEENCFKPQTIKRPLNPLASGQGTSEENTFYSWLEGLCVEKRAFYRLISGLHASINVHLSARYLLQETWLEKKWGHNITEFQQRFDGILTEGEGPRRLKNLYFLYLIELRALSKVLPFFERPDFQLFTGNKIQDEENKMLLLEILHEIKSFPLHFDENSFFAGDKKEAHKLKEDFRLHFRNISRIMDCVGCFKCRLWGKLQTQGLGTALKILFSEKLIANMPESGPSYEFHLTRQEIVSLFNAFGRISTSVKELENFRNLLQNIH
Procedure: MDAMB231 and E0771 cells were maintained in Dulbecco’s Modified Eagle’s Medium supplemented with 1 % fetal bovine serum and seeded at 70 % confluency in six-well plates one day prior to the experiment. Cells were treated with DTT (10 mM) and/or ERO1A inhibitors for 1–5 h. At the time of collection, phosphate-buffered saline containing 10 mM NEM was added, and cells were incubated on ice for 10 min in lysis buffer (50 mM Tris-HCl, pH 7.4; 150 mM NaCl; 1 % Triton X-100; 0.1 % SDS; 1 % sodium deoxycholate; protease inhibitors; and 10 mM NEM). Protein concentrations were determined using the BCA assay, and equal amounts of protein were separated by non-reducing SDS-PAGE followed by immunoblotting with a polyclonal antibody against ERO1A [33].

[2] = target: T2, Human monoamine oxidase A (Mao-A) (Homo sapiens, UniProt P21397); assay: Mao-A activity assay (commercial kit, p-tyramine, H2O2 fluorimetry); type: biochemical; settings: 25 μM, 10 min incubation
T2 construct: purchased Sigma-Aldrich
T2 sequence (P21397 1-527): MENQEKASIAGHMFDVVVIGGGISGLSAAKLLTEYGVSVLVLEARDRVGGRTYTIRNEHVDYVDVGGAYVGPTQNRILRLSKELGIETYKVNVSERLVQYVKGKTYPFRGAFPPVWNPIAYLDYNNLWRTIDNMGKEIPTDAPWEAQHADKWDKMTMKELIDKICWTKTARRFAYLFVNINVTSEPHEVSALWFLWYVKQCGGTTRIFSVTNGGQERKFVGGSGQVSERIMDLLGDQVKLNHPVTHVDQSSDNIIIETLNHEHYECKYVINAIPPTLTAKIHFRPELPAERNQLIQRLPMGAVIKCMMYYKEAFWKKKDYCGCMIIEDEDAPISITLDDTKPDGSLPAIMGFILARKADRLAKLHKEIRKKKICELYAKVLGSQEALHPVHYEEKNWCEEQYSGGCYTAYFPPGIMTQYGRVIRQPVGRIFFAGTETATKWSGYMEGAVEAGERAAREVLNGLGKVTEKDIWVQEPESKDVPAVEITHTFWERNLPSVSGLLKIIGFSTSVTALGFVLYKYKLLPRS
Procedure: Mao-A activity was measured using a commercial assay kit according to the manufacturer’s instructions. Mao-A (0.837 μM) was incubated with vehicle (1 % DMSO), Clorgyline (50 μM), or various concentrations (1, 5, or 25 μM) of EN460, I2, I26, or I29 for 10 min. Mao-A catalyzes the oxidative deamination of p-tyramine, generating H2O2, which was quantified fluorimetrically (λex= 530; λem= 585 nm). Mao-A activity is presented as a percentage of the vehicle control.

[3] = system: WT and SEPN1 KD C2C12 cells; assay: Super resolution microscopy (SIM) of ER volume and mitochondrial network; type: cell-based; settings: for mitochondrial network (total branch length): SEPN1 KD cells; for ER volume: WT and SEPN1 KD cells
Description: Structured illumination microscopy (SIM) was done on a Nikon SIM system with a 100 × 1.49 objective. Briefly, randomly selected cells were imaged at laser excitation of 405 nm (nuclei), 561 nm (ER), and 640 nm (mitochondria) with a 3D-SIM acquisition protocol. SIM images were quantified with ImageJ. After background normalization, the ER signals was segmentated to calculate the volume of the ER expressed as fraction of the cell. The segmentated mitochondrial signal was followed by the skeletonize function of ImageJ to perform mitochondria network analysis. We then applied the Analyze Skeleton 2D/3D plugin of ImageJ to measure each cell total branch length, expressed as μm.

MDAMB231 cells = assay: MTS assay of metabolic activity in MDAMB231 cells; type: cell-based, human; settings: MDAMB231, dose-response, 24 h, 1 % FBS
Procedure: Six thousand cells (MDAMB231 and E0771) per well were seeded in 96-well plates and cultured in medium containing 1 % FBS. Cells were treated with varying concentrations of compounds and, after 24 h, incubated with MTS [3-(4,5-dimethylthiazol-2-yl)-5-(3-carboxymethoxyphenyl)-2-(4 sulfophenyl)2Htetrazolium]and PMS (phenazine methosulfate), following the instructions of the CellTiter 96® Aqueous Non-Radioactive Cell Proliferation Assay (Promega). Measurements were performed using a TECAN Infinite M200 plate reader with […] at 490 nm.

Compound	PDI activity (percentage of the vehicle control) (recombinant PDI)	ERO1 reduction (redox state) ([1]; MDA-MB-231, 20 μM, Fig. Sup. 2A)	ERO1 reduction ([1]; MDA-MB-231, 20 μM, dose-response 1–20 μM, Fig. 4B)	concentration achieving complete ERO1 reduction ([1]; MDA-MB-231, dose-response 5–20 μM, Fig. Sup. 2B) [µM]	Mao-A activity (percentage of the vehicle control) [2]	mitochondrial network (total branch length) [3]	ER volume [3]	metabolic activity (MTS assay) (MDAMB231 cells)	ERO1 reduction compared with EN460 ([1]; MDAMB231, Fig. 4D)
O=C(O)c1cc(N2N=C(C(F)(F)F)/C(=C\c3ccc(-c4ccccc4)o3)C2=O)ccc1Cl [EN460, reference compound]	inhibited PDI activity	efficiently reduced ERO1	near-complete reduction of ERO1	15	inhibited Mao-A activity	selectively improved the mitochondrial network	did not change substantially	significantly reduced metabolic activity	–
O=C1/C(=C/c2ccc(-c3ccccc3)o2)C(C(F)(F)F)=NN1c1ccccc1F [I29]	inhibited PDI activity	–	–	–	inhibited Mao-A activity	selectively improved the mitochondrial network	did not change substantially	significantly reduced metabolic activity; also recorded: higher potency than EN460	reduced more efficiently ERO1
